Measured values reported in patent publication US10428026B2, “Pyridinone dicarboxamide for use as bromodomain inhibitors” (GlaxoSmithKline Intellectual Property (No.2) Limited, priority 2015, dated 2019).

target: T1, BRD4 BD2 (Homo sapiens, UniProt O60885, Y97A); assay: BRD4 BD2 TR-FRET competition assay; type: binding; details: BRD4 BD2 TR-FRET; read-out: pIC50 in the BRD4 BD2 assay (converted)
T1 construct: BRD4 (1-477) (Y97A) and (Y390A); made in house; host or cells: E. coli (pET15b vector)

IC50	Structure (SMILES)
1 to 100 µM	CNC(=O)c1cc(C(=O)N[C@@H]2CCCC[C@H]2O)cn(Cc2ccccc2)c1=O (racemic) [Example 185, (+/−)-1-Benzyl-N5-((trans)-2-hydroxycyclohexyl)-N3-methyl-2-oxo-1,2-dihydropyridine-3,5-dicarboxamide]
1 to 100 µM	CNC(=O)c1cc(C(=O)N[C@@H]2CCCC[C@@H]2O)cn(Cc2ccccc2)c1=O (racemic) [Example 186, (+/−)-1-Benzyl-N5-((cis)-2-hydroxycyclohexyl)-N3-methyl-2-oxo-1,2-dihydropyridine-3,5-dicarboxamide]
1 to 100 µM	CNC(=O)c1cc(C(=O)NC[C@H]2CCC[C@@H]2O)cn(Cc2ccccc2)c1=O (racemic) [Example 196, (+/−)-1-Benzyl-N5-(((1R,2S)-2-hydroxycyclopentyl)methyl)-N3-methyl-2-oxo-1,2-dihydropyridine-3,5-dicarboxamide]
1 to 100 µM	CNC(=O)c1cc(C(=O)NC[C@@H]2CC[C@@H](O)C2)cn(Cc2ccccc2)c1=O (racemic) [Example 198, (+/−)-1-Benzyl-N5-(((trans)-3-hydroxycyclopentyl)methyl) N3-methyl-2-oxo-1,2-dihydropyridine-3,5-dicarboxamide]
1 to 100 µM	CNC(=O)c1cc(C(=O)NC[C@@H]2CC[C@H](O)C2)cn(Cc2ccccc2)c1=O (racemic) [Example 199, (+/−)-1-Benzyl-N5-(((cis)-3-hydroxycyclopentyl)methyl)-N3-methyl-2-oxo-1,2-dihydropyridine-3,5-dicarboxamide]
1 to 100 µM	CNC(=O)c1cc(C(=O)NC[C@@H]2CCC[C@H](O)C2)cn(Cc2ccccc2)c1=O (racemic) [Example 206, (+/−)-1-Benzyl-N5-(((1R,3S)-3-hydroxycyclohexyl)methyl)-N3-methyl-2-oxo-1,2-dihydropyridine-3,5-dicarboxamide]
1 to 100 µM	CCO[C@H]1C[C@H]1NC(=O)c1cc(C(=O)NC)c(=O)n(Cc2cccc(F)c2)c1 (racemic) [Example 208, (+/−)-N5-((cis)-2-ethoxycyclopropyl)-1-(3-fluorobenzyl)-N3-methyl-2-oxo-1,2-dihydropyridine-3,5-dicarboxamide]
1 to 100 µM	CCO[C@H]1C[C@H]1NC(=O)c1cc(C(=O)NC)c(=O)n(Cc2cccc(C)c2)c1 (racemic) [Example 222, (+/−)-N5-((cis)-2-ethoxycyclopropyl)-N3-methyl-1-(3-methylbenzyl)-2-oxo-1,2-dihydropyridine-3,5-dicarboxamide]
1 to 100 µM	CNC(=O)c1cc(C(=O)N[C@@H]2CC[C@H]2OC)cn(Cc2ccccc2)c1=O (racemic) [Example 243, (+/−)-1-Benzyl-N5-((trans)-2-methoxycyclobutyl)-N3-methyl-2-oxo-1,2-dihydropyridine-3,5-dicarboxamide]
1 to 100 µM	CNC(=O)c1cc(C(=O)NC2CC2)cn(CC2CCCc3[nH]cnc32)c1=O (racemic) [Example 250, (+/−)-N5-Cyclopropyl-N3-methyl-2-oxo-1-((4,5,6,7-tetrahydro-1H-benzo[d]imidazol-4-yl)methyl)-1,2-dihydropyridine-3,5-dicarboxamide]
1 to 100 µM	CNC(=O)c1cc(C(=O)N[C@@H]2C[C@H]2CO)cn(C(C)c2cccc(C)c2)c1=O (mixture of isomers) [Example 267, N5-((trans)-2-(Hydroxymethyl)cyclopropyl)-N3-methyl-2-oxo-1-((S*)-1-(m-tolyl)ethyl)-1,2-dihydropyridine-3,5-dicarboxamide]
1 to 100 µM	CNC(=O)c1cc(C(=O)N[C@@H]2CCC[C@@H](O)C2)cn(Cc2ccccc2)c1=O (relative stereo) [Example 217, 1-Benzyl-N5-((1R*,3R*)-3-hydroxycyclohexyl)-N3-methyl-2-oxo-1,2-dihydropyridine-3,5-dicarboxamide]
1 to 100 µM	CNC(=O)c1cc(C(=O)NC2CC2)cn(C(C)c2cccc(C)c2)c1=O (single isomer, unassigned) [Example 211, (S*)-N5-Cyclopropyl-N3-methyl-2-oxo-1-(1-(m-tolyl)ethyl)-1,2-dihydropyridine-3,5-dicarboxamide]
1 to 100 µM	CNC(=O)c1cc(C(=O)NC2CC2)cn(C(C)c2ccccc2C)c1=O (single isomer, unassigned) [Example 213, (R*)-N5-Cyclopropyl-N3-methyl-2-oxo-1-(1-(o-tolyl)ethyl)-1,2-dihydropyridine-3,5-dicarboxamide]
1 to 100 µM	CNC(=O)c1cc(C(=O)NC2CC2(C)C)cn(Cc2ccccc2)c1=O (single isomer, unassigned) [Example 248, (R*)-1-Benzyl-N5-(2,2-dimethylcyclopropyl)-N3-methyl-2-oxo-1,2-dihydropyridine-3,5-dicarboxamide]
1 to 100 µM	CNC(=O)c1cc(C(=O)NC2CC2)cn(C(CO)c2ccccc2)c1=O (single isomer, unassigned) [Example 324, (R*)—N^5-Cyclopropyl-1-(2-hydroxy-1-phenylethyl)-N^3-methyl-2-oxo-1,2-dihydropyridine-3,5-dicarboxamide]
1 to 100 µM	CNC(=O)c1cc(C(=O)NC2CCC2)cn(Cc2cnn(C)c2)c1=O [Example 163, N5-Cyclobutyl-N3-methyl-1-((1-methyl-1H-pyrazol-4-yl)methyl)-2-oxo-1,2-dihydropyridine-3,5-dicarboxamide]

IC50	Structure (SMILES)
1 to 100 µM	CNC(=O)c1cc(C(=O)NC2CCC2c2ccccc2)cn(Cc2ccccc2)c1=O (stereo not shown) [Example 168, 1-Benzyl-N3-methyl-2-oxo-N5-(2-phenylcyclobutyl)-1,2-dihydropyridine-3,5-dicarboxamide]
1 to 100 µM	CNC(=O)c1cc(C(=O)N[C@H]2C[C@@H](C(=O)O)C2)cn(Cc2ccccc2)c1=O [Example 169, (cis)-3-(1-Benzyl-5-(methylcarbamoyl)-6-oxo-1,6-dihydropyridine-3-carboxamido)cyclobutane-carboxylic acid]
1 to 100 µM	CNC(=O)c1cc(C(=O)NC2CCC2)cn([C@@H](C)c2ccccc2)c1=O [Example 171, (S)-N5-Cyclobutyl-N3-methyl-2-oxo-1-(1-phenylethyl)-1,2-dihydropyridine-3,5-dicarboxamide]
1 to 100 µM	CNC(=O)c1cc(C(=O)NC2(CC(C)C)CC2)cn(Cc2ccccc2)c1=O [Example 173, 1-Benzyl-N5-(1-isobutylcyclopropyl)-N3-methyl-2-oxo-1,2-dihydropyridine-3,5-dicarboxamide]
1 to 100 µM	CCOC1CC(NC(=O)c2cc(C(=O)NC)c(=O)n(Cc3ccccc3)c2)C1OC (stereo not shown) [Example 177, 1-Benzyl-N5-(3-ethoxy-2-methoxycyclobutyl)-N3-methyl-2-oxo-1,2-dihydropyridine-3,5-dicarboxamide]
1 to 100 µM	CCCC1(NC(=O)c2cc(C(=O)NC)c(=O)n(Cc3ccccc3)c2)CC1 [Example 178, 1-Benzyl-N3-methyl-2-oxo-N5-(1-propylcyclopropyl)-1,2-dihydropyridine-3,5-dicarboxamide]
1 to 100 µM	CNC(=O)c1cc(C(=O)NC2CCC2)cn(Cc2ccc(C(=O)OC)cc2)c1=O [Example 180, Methyl 4-((5-(cyclobutylcarbamoyl)-3-(methylcarbamoyl)-2-oxopyridin-1(2H)-yl)methyl)benzoate]
1 to 100 µM	CNC(=O)c1cc(C(=O)NC2CC2)cn(CCCc2ccccc2)c1=O [Example 190, N5-Cyclopropyl-N3-methyl-2-oxo-1-(3-phenylpropyl)-1,2-dihydropyridine-3,5-dicarboxamide]
1 to 100 µM	CNC(=O)c1cc(C(=O)NCC2CCCCC2O)cn(Cc2ccccc2)c1=O (stereo not shown) [Example 194, 1-Benzyl-N5-((2-hydroxycyclohexyl)methyl)-N3-methyl-2-oxo-1,2-dihydropyridine-3,5-dicarboxamide]
1 to 100 µM	CNC(=O)c1cc(C(=O)NC[C@H]2CC[C@H](O)CC2)cn(Cc2ccccc2)c1=O [Example 200, 1-Benzyl-N5-(((trans)-4-hydroxycyclohexyl)methyl)-N3-methyl-2-oxo-1,2-dihydropyridine-3,5-dicarboxamide]
1 to 100 µM	CNC(=O)c1cc(C(=O)NC[C@H]2CC[C@@H](O)CC2)cn(Cc2ccccc2)c1=O [Example 201, 1-Benzyl-N5-(((cis)-4-hydroxycyclohexyl)methyl)-N3-methyl-2-oxo-1,2-dihydropyridine-3,5-dicarboxamide]
1 to 100 µM	CNC(=O)c1cc(C(=O)NC2CC2CO)cn(Cc2cccc(C)c2F)c1=O (stereo not shown) [Example 214, 1-(2-Fluoro-3-methylbenzyl)-N5-(2-(hydroxymethyl)cyclopropyl)-N3-methyl-2-oxo-1,2-dihydropyridine-3,5-dicarboxamide]
1 to 100 µM	CNC(=O)c1cc(C(=O)N[C@@H]2CCC[C@H](O)C2)cn(Cc2ccccc2)c1=O [Example 219, 1-Benzyl-N5-((1R,3S)-3-hydroxycyclohexyl)-N3-methyl-2-oxo-1,2-dihydropyridine-3,5-dicarboxamide]
1 to 100 µM	CNC(=O)c1cc(C(=O)NC2CC2)cn(CC2COc3ccccc32)c1=O (stereo not shown) [Example 268, N5-Cyclopropyl-1-((2,3-dihydrobenzofuran-3-yl)methyl)-N3-methyl-2-oxo-1,2-dihydropyridine-3,5-dicarboxamide]
1 to 100 µM	CNC(=O)c1cc(C(=O)N[C@H]2C[C@@H]2C)cn(Cc2cc(OC)ccn2)c1=O [Example 334, 1-((4-Methoxypyridin-2-yl)methyl)-N^3-methyl-N^5-((1S,2S)-2-methylcyclopropyl)-2-oxo-1,2-dihydropyridine-3,5-dicarboxamide]
1 to 100 µM	CNC(=O)c1cc(C(=O)N[C@H]2C[C@@H]2C)cn(Cc2cc(C)ccn2)c1=O [Example 335, N^3-Methyl-N^5-((1S,2S)-2-methylcyclopropyl)-1-((4-methylpyridin-2-yl)methyl)-2-oxo-1,2-dihydropyridine-3,5-dicarboxamide]
1 to 100 µM	CNC(=O)c1cc(C(=O)N[C@H]2C[C@@H]2C)cn(Cc2ccc(C(=O)O)cc2)c1=O [Example 339, 4-((3-(Methylcarbamoyl)-5-(((1S,2S)-2-methylcyclopropyl)carbamoyl)-2-oxopyridin-1(2H)-yl)methyl)benzoic acid]
